# In ChEMBL document CHEMBL2146433, “Melanin concentrating hormone receptor 1 (MCHR1) antagonists-Still a viable approach for obesity treatment?” (Bioorg Med Chem Lett, 2012):
# Columns and labels:
# [1] = biological target: T1, Melanin-concentrating hormone receptor 1 (Homo sapiens, UniProt Q99705); experiment: Displacement of [125I]-MCH from human MCHR1 receptor expressed in CHO-K1 cell membranes after 2 hrs by scintillation proximity assay
# Rattus norvegicus [2] = experiment: Antiobesity activity in obese rat assessed as reduction in body weight at 30 mg/kg, po measured on day 29; format: functional; set-up: scale not given: the % may be the effect or the level left
# Rattus norvegicus [3] = experiment: Antiobesity activity in obese rat assessed as reduction in body weight at 3 mg/kg, po measured on day 29; format: functional; set-up: scale not given: the % may be the effect or the level left
# [4] = Displacement of [Phe13, [125I]Tyr19]-MCH from human MCHR1 receptor E4Q/A5T mutant expressed in HEK 293 cell membranes by scintillation counter; conditions: hek293
# [5] = biological target: T1, Melanin-concentrating hormone receptor 1; experiment: Binding affinity to MCHR1 receptor by cell-based assay
# T1 sequence (Q99705 whole entry): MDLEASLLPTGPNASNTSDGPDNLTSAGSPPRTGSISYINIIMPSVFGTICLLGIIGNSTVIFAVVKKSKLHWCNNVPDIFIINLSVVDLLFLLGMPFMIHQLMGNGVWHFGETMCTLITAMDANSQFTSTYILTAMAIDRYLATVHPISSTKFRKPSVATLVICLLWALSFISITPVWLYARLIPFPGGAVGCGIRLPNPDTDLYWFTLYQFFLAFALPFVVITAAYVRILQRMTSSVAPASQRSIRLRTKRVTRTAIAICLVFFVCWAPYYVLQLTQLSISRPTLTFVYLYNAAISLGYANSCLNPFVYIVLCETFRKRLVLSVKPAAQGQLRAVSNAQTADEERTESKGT
smiles,measurement,setting,value
CN(C)CC1CCc2cc(NC(=O)Nc3ccc(Oc4ccccc4)cc3)ccc2C1 (centres undefined),IC50,[1],0.01 µM
COc1cc(-n2cnc3cc(-c4ccc(Cl)cc4)sc3c2=O)ccc1OC[C@H](OP(=O)(O)O)C1CC1 [BMS-830216],Activity,Rattus norvegicus [2],7.8%
same,Activity,Rattus norvegicus [3],7.8%
COc1cc(-n2cnc3cc(-c4ccc(Cl)cc4)sc3c2=O)ccc1OC[C@H](O)C1CC1,Ki,[4],0.018 µM
COc1cc(-n2cnc3cc(-c4ccc(Cl)cc4)sc3c2=O)ccc1OCC1(OC(=O)CN)CC(F)(F)C1,Activity,Rattus norvegicus [2],10.2%
same,Activity,Rattus norvegicus [3],10.2%
COc1ccc(/C=C/C(=O)Nc2ccc3nc(N4CCOCC4)cc(C)c3c2)cc1,Activity,[5],50 nM
COc1cc(-n2cnc3cc(-c4ccc(Cl)cc4)sc3c2=O)ccc1OCC1(O)CC(F)(F)C1,Ki,[4],0.01 µM
Cc1ccc(/C=C/C(=O)Nc2ccc3nc(N4CCN(C)CC4)cc(C)c3c2)cc1,Activity,[5],50 nM
